PMC5012427 (Molecular cell, 2016)
Where a chain is given by its changes, count along the chain named.

Columns and labels:
MBP-Coq8^NΔ41 = biological target: T1, MBP-Coq8^NΔ41 (Saccharomyces cerevisiae, UniProt P27697); test: co-purification, LC-MS/MS lipidomics; assay type: binding; conditions: co-purified from E. coli; WT compared with mutants
T1 sequence (P27697 42-501): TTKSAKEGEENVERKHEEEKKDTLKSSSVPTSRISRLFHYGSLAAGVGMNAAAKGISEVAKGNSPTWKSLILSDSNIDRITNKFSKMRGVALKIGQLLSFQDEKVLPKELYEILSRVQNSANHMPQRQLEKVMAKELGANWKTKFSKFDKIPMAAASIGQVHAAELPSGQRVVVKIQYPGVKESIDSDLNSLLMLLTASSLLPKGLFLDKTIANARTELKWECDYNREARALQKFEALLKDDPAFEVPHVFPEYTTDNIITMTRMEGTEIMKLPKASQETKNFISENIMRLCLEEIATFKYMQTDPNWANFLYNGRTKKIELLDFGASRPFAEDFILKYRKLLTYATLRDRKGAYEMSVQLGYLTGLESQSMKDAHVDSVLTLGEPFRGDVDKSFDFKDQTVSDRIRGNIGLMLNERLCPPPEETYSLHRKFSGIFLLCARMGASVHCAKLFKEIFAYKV

Coq8^NΔ41 (Coq8p) = biological target: T2, Coq8^NΔ41 (Coq8p) (Saccharomyces cerevisiae, UniProt P27697, A197G); test: nucleotide binding; conditions: A-rich loop A-to-G mutant
T2 sequence (P27697 42-501 A197G): T1 sequence (P27697 42-501) with A156G

| SMILES | co-purification, LC-MS/MS lipidomics (MBP-Coq8^NΔ41) | nucleotide binding (method in supplement) (Coq8^NΔ41 (Coq8p)) |
| --- | --- | --- |
| CC(C)=CCC/C(C)=C/CC/C(C)=C/CC/C(C)=C/CC/C(C)=C/CC/C(C)=C/CC/C(C)=C/Cc1ccccc1O [heptaprenylphenol] | binding of OHB, OPP, and heptaprenylphenol (HPP) was decreased by Coq8p active site mutations | – |
| Nc1ncnc2c1ncn2[C@@H]1O[C@H](COP(=O)(O)OP(=O)(O)O)[C@@H](O)[C@H]1O [ADP] | – | selectivity for ADP over ATP that can be reversed by an A-rich loop A-to-G mutation |
